# From the Kinase Knowledgebase extract (Sharma et al. 2016)
# Target: PIK3CA (human) (UniProt P42336)
# Experiment: Assessment of PIK3CA Kinase Activity
# PIK3CA (human), sequence (P42336 whole entry, looked up): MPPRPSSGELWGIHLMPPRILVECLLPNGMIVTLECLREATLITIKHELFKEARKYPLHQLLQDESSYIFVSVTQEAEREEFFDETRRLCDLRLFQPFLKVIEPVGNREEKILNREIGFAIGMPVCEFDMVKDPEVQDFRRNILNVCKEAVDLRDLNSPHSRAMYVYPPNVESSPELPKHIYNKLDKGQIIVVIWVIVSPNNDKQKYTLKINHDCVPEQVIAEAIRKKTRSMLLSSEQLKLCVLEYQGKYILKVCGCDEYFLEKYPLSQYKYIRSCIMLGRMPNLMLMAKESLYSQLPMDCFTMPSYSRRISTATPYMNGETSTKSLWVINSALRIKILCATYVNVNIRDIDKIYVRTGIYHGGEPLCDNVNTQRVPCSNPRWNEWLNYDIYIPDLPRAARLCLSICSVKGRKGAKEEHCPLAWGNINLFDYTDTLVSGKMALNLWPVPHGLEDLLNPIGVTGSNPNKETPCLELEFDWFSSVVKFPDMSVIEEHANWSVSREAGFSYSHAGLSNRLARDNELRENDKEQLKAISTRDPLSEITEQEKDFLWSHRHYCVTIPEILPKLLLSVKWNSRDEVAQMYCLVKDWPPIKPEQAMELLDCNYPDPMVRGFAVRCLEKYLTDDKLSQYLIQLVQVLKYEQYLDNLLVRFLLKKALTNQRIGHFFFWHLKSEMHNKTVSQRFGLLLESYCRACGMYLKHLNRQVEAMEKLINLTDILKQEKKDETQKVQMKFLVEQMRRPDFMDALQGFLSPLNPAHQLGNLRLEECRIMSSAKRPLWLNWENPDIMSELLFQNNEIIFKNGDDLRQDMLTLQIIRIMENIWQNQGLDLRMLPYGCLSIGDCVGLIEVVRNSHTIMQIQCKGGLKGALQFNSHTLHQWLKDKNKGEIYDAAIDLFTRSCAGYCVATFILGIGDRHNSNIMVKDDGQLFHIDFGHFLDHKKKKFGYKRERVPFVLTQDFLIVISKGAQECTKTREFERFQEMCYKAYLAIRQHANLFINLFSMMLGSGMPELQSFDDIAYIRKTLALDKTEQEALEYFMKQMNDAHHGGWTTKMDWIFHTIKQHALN
smiles,measurement,value
CC(O)c1ccc(F)c(-c2nc(N3CCOCC3)c3sc(CN(C)c4ncc(C(=O)NO)cn4)cc3n2)c1 (stereo not drawn),IC50,100 to 1000 nM
CS(=O)(=O)N1CCN(Cc2cc3nc(-c4ccc(OCCCCCCC(=O)NO)cc4)nc(N4CCOCC4)c3s2)CC1,IC50,100 to 1000 nM
COc1ncc(-c2nc(N3CCOCC3)c3sc(NS(=O)(=O)c4cccc(C=CC(=O)NO)c4)cc3n2)cn1,IC50,< 100 nM
CCCc1nc2cc(C=CC(=O)NO)ccc2n1CCN(C)Cc1cc2nc(-c3ccc(NC)nc3)nc(N3CCOCC3)c2s1,IC50,100 to 1000 nM
COc1ccc(-c2nc(N3CCOCC3)c3sc(S(=O)(=O)Nc4ncc(C(=O)NO)cn4)cc3n2)cn1,IC50,< 100 nM
Nc1ncc(-c2nc(N3CCOCC3)c3sc(NS(=O)(=O)c4ccc(/C=C/C(=O)NO)cc4)cc3n2)cn1,IC50,< 100 nM
CNc1ccc(-c2nc(N3CCOCC3)c3sc(NS(=O)(=O)c4ccc(C=CC(=O)NO)cc4)cc3n2)cn1,IC50,< 100 nM
CNc1ccc(-c2nc(N3CCOCC3)c3sc(C(C)(C)Nc4ncc(C(=O)NO)cn4)cc3n2)cn1,IC50,< 100 nM
Nc1ncc(-c2nc(N3CCOCC3)c3sc(NCCCC(=O)NO)cc3n2)cn1,IC50,< 100 nM
COc1ccc(-c2nc(N3CCOCC3)c3sc(CN(C)c4ncc(C(=O)NO)cn4)cc3n2)cc1,IC50,> 10000 nM
CS(=O)(=O)N1CCN(Cc2cc3nc(-c4cccc5[nH]ncc45)nc(NCCCCCCC(=O)NO)c3s2)CC1,IC50,> 10000 nM
CN(Cc1cc2nc(-c3ccc4c(c3)NC(=O)CO4)nc(N3CCOCC3)c2s1)c1ncc(C(=O)NO)cn1,IC50,> 10000 nM
CN(Cc1cc2nc(-c3ccc(F)cc3)nc(N3CCOCC3)c2s1)c1ncc(C(=O)NO)cn1,IC50,> 10000 nM
CN(Cc1cc2nc(-c3cccc4[nH]c(=S)[nH]c34)nc(N3CCOCC3)c2s1)c1ncc(C(=O)NO)cn1,IC50,< 100 nM
Nc1ccc(-c2nc(N3CCOCC3)c3sc(CN(CCO)c4ncc(C(=O)NO)cn4)cc3n2)cc1F,IC50,< 100 nM
CCCc1nc2cc(C=CC(=O)NO)ccc2n1CCN(C)Cc1cc2nc(-c3ccc(N)cc3)nc(N3CCOCC3)c2s1,IC50,100 to 1000 nM
CCNc1ccc(-c2nc(N3CCOCC3)c3sc(CN(C)c4ncc(C(=O)NO)cn4)cc3n2)cc1,IC50,> 10000 nM
CN(Cc1cc2nc(-c3cccc(S(N)(=O)=O)c3)nc(N3CCOCC3)c2s1)c1ncc(C(=O)NO)cn1,IC50,100 to 1000 nM
CCOc1ccc(-c2nc(N3CCOCC3)c3sc(CN(C)c4ncc(C(=O)NO)cn4)cc3n2)cn1,IC50,< 100 nM
CN(Cc1cc2nc(-c3ccc([N+](=O)[O-])c(O)c3)nc(N3CCOCC3)c2s1)c1ncc(C(=O)NO)cn1,IC50,< 100 nM
Nc1ncc(-c2nc(N3CCOCC3)c3sc(NCCCCC(=O)NO)cc3n2)cn1,IC50,< 100 nM
CNc1ccc(-c2nc(N3CCOCC3)c3sc(NS(=O)(=O)c4cccc(C=CC(=O)NO)c4)cc3n2)cn1,IC50,< 100 nM
CCN(CC)c1ccc(-c2nc(N3CCOCC3)c3sc(CN(C)c4ncc(C(=O)NO)cn4)cc3n2)cc1,IC50,> 10000 nM
CN(Cc1cc2nc(-c3cnn(C)c3)nc(N3CCOCC3)c2s1)c1ncc(C(=O)NO)cn1,IC50,100 to 1000 nM
CS(=O)(=O)N1CCN(Cc2cc3nc(-c4cccc5[nH]ncc45)nc(NCCCCCC(=O)NO)c3s2)CC1,IC50,> 10000 nM
CS(=O)(=O)N1CCN(Cc2cc3nc(-c4cccc5[nH]ncc45)nc(NCCCCC(=O)NO)c3s2)CC1,IC50,> 10000 nM
CNc1ccc(-c2nc(N3CCOCC3)c3sc(CNCc4nc5cc(C=CC(=O)NO)ccc5n4C)cc3n2)cn1,IC50,< 100 nM
COc1ccc(-c2nc(N3CCOCC3)c3sc(NS(=O)(=O)c4ccc(C=CC(=O)NO)cc4)cc3n2)cn1,IC50,100 to 1000 nM
CNc1ccc(-c2nc(N3CCOCC3)c3sc(CN(CCO)c4ncc(C(=O)NO)cn4)cc3n2)cn1,IC50,< 100 nM
CC(=O)c1cccc(-c2nc(N3CCOCC3)c3sc(CN(C)c4ncc(C(=O)NO)cn4)cc3n2)c1,IC50,100 to 1000 nM
O=C(CCCCNc1cc2nc(-c3cc(O)ccc3F)nc(N3CCOCC3)c2s1)NO,IC50,< 100 nM
CN(C)c1ccc(-c2nc(N3CCOCC3)c3sc(CN(C)c4ncc(C(=O)NO)cn4)cc3n2)cc1,IC50,> 10000 nM
CC(O)c1cccc(-c2nc(N3CCOCC3)c3sc(CN(C)c4ncc(C(=O)NO)cn4)cc3n2)c1 (stereo not drawn),IC50,< 100 nM
